Each structure is given as a SMILES string.

Data set [1] relates to lung cancer and colorectal cancer cells. The data set is described as follows: cancer cell growth study (Cell Titer Glo). It counts as cell-based. The note with it: 6 days. As to the method: FIGS. 7A-D. Chemical inhibition of Wnt-mediated cellular responses in cancer. FIG. 7A. Growth-inhibitory effects of IWR and IWP compounds on cancerous cells. Cells derived from either lung or colon cancer, with known molecular changes that result in aberrant Wnt pathway response, were treated with increasing concentrations of either IWR-4 or IWP-1 for 6 days with medium and compounds replenished daily. Cell viability was measured using Cell-Titer Glo assays. FIG. 7B. Biochemical changes of Wnt pathway components in cancerous cells treated with either IWR or IWP compounds. Lysates from H460, or DLD-1 cells were treated with IWR or IWP and Western blotted for either Dvl2, Axin2, Axin1, or Actin. Whereas both cell lines express […], Axin2 expression is absent in H460 cells. FIG. 7C. Genetic evidence for non-β-catenin dependent Wnt-mediated signalling in cancerous cells. […]
In experiments involving IWR and IWP treatments, cancer cells were seeded into a 24 well format (2.5K cells/well) in the presence of the noted Wnt pathway inhibitors (0.5% DMSO final) Media and compound changed every 24 hours for 5 days. On day 6, ATP levels were quantitated via cell titer glo assay (Promega). […] ATP levels were measured 120 hrs later via Cell Titer Glo assay (Promega).
(In ATP-based viability assays light output follows the ATP content of the culture.)

The subject of the next data set is Wnt3A. The data set is described as follows: Wnt3A phase separation (lipidation) assay in HEK 293 cells. It is filed as cell-based, human. As to conditions: detergent solubility fractionation assay. The method, then: Biochemical studies involving L-Wnt-STF or DLD-1 cells were performed in either 48- or 6-well format with IWR (10 μM) or IWP (5 μM) compounds and/or cycloheximide (100 μM) in a 48 hr assay period. Targeting of APC using RNAi in L-cells was achieved by transfecting cells with SMARTPool APC siRNAs (50 nM; Dharmacon). E-cadherin depletion studies were performed at 4° C. using DLD-1 cells lysed in PBS/1% NP-40/protease inhibitors. For Wnt3A phase separation assays, murine Porcupine (C isoform) and human Wnt3A-myc were transfected into HEK 293 cells (6 well format, 400K cells/well) as appropriate using Effectene transfection reagent (QIAGEN). After 48 hrs of incubation, cells were lysed for 15 min, RT with PL buffer (distilled water, 10 mM tris-HCl, 150 mM NaCl)/1% TritionX-114. Lysate was briefly chilled on ice, pelleted for 10 min 4° C., and the supernatant combined with an equal volume of PL buffer/3.5% TX-114. Solutions were rotated for 15 min at 4° C., placed at 37° C. for 5 mM followed by an additional centrifugation for 5 mM at 2000 g, RT. Distinct phases were collected and combined with PL buffer to a total volume of 1 mL Samples were chilled on ice, ConA sepharose (GE Healthcare) added, and samples rotated for 2 hrs at 4° C. Beads washed 2× with PL buffer, and a Western blot performed with eluted proteins using an anti-c-myc antibody. […]

For data set [2], the system named is Wnt/β-catenin pathway response induced by Wnt1, Wnt2, or Wnt3a. Nature of the data set: STF reporter, pathway activity induced by Wnt1, Wnt2 or Wnt3a. It counts as cell-based. As to conditions: FL normalized to RL. The method, then:
FIGS. 9A-C. […] FIG. 9A. Summary of results relating to IWR and IWP compounds from the screening process. Wnt pathway tests were performed in either cells responding to autonomously-produced Wnt protein (L-Wnt-STF cells) or exogenously provided Wnt in conditioned medium (HEK293 cells). FIG. 9B. […] Left: schematic of Wnt-Gaussia luciferase (Wnt-GL) fusion protein used to monitor levels of secreted Wnt protein in the cell medium. Right: levels of Wnt-GL but not GL secreted from cells treated with IWP compounds are decreased as compared to cells treated with carrier. The Wnt-GL protein elicits levels of Wnt/β-catenin pathway response similar to that of Wnt3a protein (data not shown). FIG. 9C. […] FL activity was normalized to control RL activity as before.

In data set [3] the test system is caudal fin regeneration in zebrafish. The data set is described as follows: caudal fin regeneration assay in zebrafish. As to conditions: for caudal fin regeneration after mechanical resection: zebrafish, compound in water 10 μM, 4 days. It counts as in vivo. The method, then: FIG. 25. […] Arrows indicate the points of resection.
(§1) 6 month-old zebrafish were incubated 8 or 14 days at 28.5° C. in aquarium water supplemented with 10 μM IWR or in 0.1% DMSO as a control. Fish were fed standard diet, and solutions were changed daily. At the end of the exposure, zebrafish were incubated in 1 mM BrdU in aquarium water for 2 hrs at room temperature, then washed several times in aquarium water, anesthetized with 0.1% Tricaine, and fixed in 4% paraformaldehyde for 48 hrs at 4° C. The intestine was dissected out, dehydrated, paraffin embedded and sectioned at […] intervals. Sections were stained with Hematoxylin and Eosin or processed for BrdU immunohistochemistry as described (Shepard et al., 2005). Sections from 8 animals each from IWR and DMSO groups were independently scored by four blinded observers. The total number of intestinal folds and total number of BrdU-positive nuclei in the mid and distal sections of the intestine were counted from each section. For caudal fin regeneration assays, zebrafish, 3-6 months of age, were anaesthetized in 0.2% Tricaine and half of the fin was resected using a razor blade to remove Amputees were reared at 31° C. in tanks containing either 300 ml of water with DMSO or IWR (10 μM). Water and compounds were replenished daily for a total assay period of 4 days.

The next data set deals with β-catenin. Nature of the data set: β-catenin accumulation in L-cells treated with APC siRNAs. It is filed as cell-based. As to conditions: mouse L-cells treated with APC siRNAs. The source says: FIGS. 5A-H. Stabilization of the Axin2 destruction complex by IWR compounds. FIG. 5A. IWR compounds block β-catenin accumulation induced by loss of APC tumor suppressor. […] FIG. 5B. IWRs block aberrant Wnt/β-catenin pathway activity in the colorectal cancer (CRC) cells. Aberrant Wnt/β-catenin pathway activity in DLD-1 cells, CRC cells which harbor a loss-of-function mutation in APC, is abrogated by IWR compounds. Pathway activity was monitored using the STF reporter and normalized to RL control reporter as before. FIG. 5C. IWRs induce accumulation of Axin2 protein. Western blot analysis of proteins involved in regulating β-catenin levels in DLD-1 cells reveal accumulation of Axin2 protein in cells treated with IWR compounds with little change in expression levels of other pathway components. Note that the APC protein is truncated in these cells. FIG. 5D. Levels of β-catenin in CRC cells available for Wnt response are decreased in the presence of IWR compounds. […] FIG. 5E. IWR stabilizes Axin2 protein. Rapid destruction of Axin2 protein is apparent in DLD-1 cells treated with the protein synthesis inhibitor cycloheximide. […] FIG. 5F. […] FIG. 5G. […] FIG. 5H. A proposed model of IWR action. Addition of IWR to cells induces stabilization of Axin2 protein with consequential increase in β-catenin destruction. […]

For data set [4], the system named is zebrafish gastrointestinal (GI) tract. Nature of the data set: homeostatic renewal of the zebrafish GI tract (BrdU incorporation, histology). It is filed as in vivo. The method, then:
as §1
(In general: Uptake of a labelled nucleoside into DNA is a usual measure of proliferation.)

For data set [5], the system named is Axin2 and β-catenin in DLD-1 cells. Nature of the data set: biochemical studies of destruction complex components in DLD-1 cells (Western blot, E-cadherin depletion, cycloheximide). It is filed as cell-based. The text has this:
FIGS. 5A-H. Stabilization of the Axin2 destruction complex by IWR compounds. FIG. 5A. IWR compounds block β-catenin accumulation induced by loss of APC tumor suppressor. […] FIG. 5B. IWRs block aberrant Wnt/β-catenin pathway activity in the colorectal cancer (CRC) cells. Aberrant Wnt/β-catenin pathway activity in DLD-1 cells, CRC cells which harbor a loss-of-function mutation in APC, is abrogated by IWR compounds. Pathway activity was monitored using the STF reporter and normalized to RL control reporter as before. FIG. 5C. IWRs induce accumulation of Axin2 protein. Western blot analysis of proteins involved in regulating β-catenin levels in DLD-1 cells reveal accumulation of Axin2 protein in cells treated with IWR compounds with little change in expression levels of other pathway components. Note that the APC protein is truncated in these cells. FIG. 5D. Levels of β-catenin in CRC cells available for Wnt response are decreased in the presence of IWR compounds. […] FIG. 5E. IWR stabilizes Axin2 protein. Rapid destruction of Axin2 protein is apparent in DLD-1 cells treated with the protein synthesis inhibitor cycloheximide. […] FIG. 5F. […] FIG. 5G. […] FIG. 5H. A proposed model of IWR action. Addition of IWR to cells induces stabilization of Axin2 protein with consequential increase in β-catenin destruction.
(§2) Targeting of APC using RNAi in L-cells was achieved by transfecting cells with SMARTPool APC siRNAs (50 nM; Dharmacon). E-cadherin depletion studies were performed at 4° C. using DLD-1 cells lysed in PBS/1% NP-40/protease inhibitors. For Wnt3A phase separation assays, murine Porcupine (C isoform) and human Wnt3A-myc were transfected into HEK 293 cells (6 well format, 400K cells/well) as appropriate using Effectene transfection reagent (QIAGEN). After 48 hrs of incubation, cells were lysed for 15 min, RT with PL buffer (distilled water, 10 mM tris-HCl, 150 mM NaCl)/1% TritionX-114. Lysate was briefly chilled on ice, pelleted for 10 min 4° C., and the supernatant combined with an equal volume of PL buffer/3.5% TX-114. […]
On the technique in general: In western blotting, separated proteins are transferred to a membrane and probed.

The subject of another data set is Wnt/β-catenin pathway. Nature of the data set: Western blot of Wnt/β-catenin pathway markers (LRP6 and Dvl2 phosphorylation, β-catenin accumulation) in L-Wnt-STF cells. It is filed as cell-based, mouse. As to conditions: L-Wnt cells.
Description: FIG. 3. Biochemical evidence for Wnt/β-catenin pathway inhibition by IWR and IWP compounds. […] Cellular lysates were subjected to Western blot analysis to determine levels of LRP6 and Dvl2 phosphorylation, and β-catenin accumulation, all biochemical events associated with Wnt/β-catenin pathway activity. Predictably, IWPs blocked all three biochemical events, whereas IWRs appear to block β-catenin accumulation without affecting LRP6 and Dv12 phosphorylation. Kif3A and tubulin serve as loading controls.
as §2, with “Biochemical studies involving L-Wnt-STF or DLD-1 cells were performed in either 48- or 6-well format with IWR (10 μM) or IWP (5 μM) compounds and/or cycloheximide (100 μM) in a 48 hr assay period. Targeting” for “Targeting”, “TritionX-114.” for “TritionX-114. Lysate was briefly chilled on ice, pelleted for 10 min 4° C., and the supernatant combined with an equal volume of PL buffer/3.5% TX-114.”

For `COc1ccc(-n2nc(C(=O)NCC(=O)Nc3nc4ccc(OC)cc4s3)c3ccccc3c2=O)cc1` [IWP-1], the “inhibition of cancerous cell growth” value in data set [1] is reported as “consistently more effective than IWR-4”.
`Cc1ccc2nc(NC(=O)CSc3nc4c(c(=O)n3-c3ccccc3)SCC4)sc2c1` [IWP-2]: the “levels of lipidated Wnt3A” value in the data set on Wnt3A is “decreased”. Further, the “pathway activity induced by Wnt1, Wnt2, or Wnt3a” value in data set [2] was “decreased”. Besides, the “caudal fin regeneration after mechanical resection” value in data set [3] was “failed to do so”.
For the compound `O=C(Nc1cccc2cccnc12)c1ccc(N2C(=O)[C@@H]3[C@H](C2=O)[C@@H]2C=C[C@H]3C2)cc1` [IWR-1], the “β-catenin accumulation induced by loss of APC” value in the data set with β-catenin is reported as “can be blocked”. In data set [4] (zebrafish treated for periods longer than 4 days), the “adverse signs in treated fish” value is “lethargy and decreased appetite”. In addition, the “BrdU-labeled cells at the base of intestinal folds” value in data set [4] (zebrafish, 10 μM in water, 8 days) is “decreased number”. The “levels of β-catenin not bound to E-cadherin” value in data set [5] (DLD-1 cells) is “decreased”. Besides, in data set [5] (DLD-1 cells with cycloheximide), the Axin2 protein turn-over entry is “little turn-over of Axin2”. The “expression of Wnt/β-catenin target gene Axin2” value in data set [5] (DLD-1 cells, exposure for 2 h) is listed as “decrease in the expression of Axing”. In addition, the “pathway activity induced by Wnt1, Wnt2, or Wnt3a” value in data set [2] is reported as “decreased”. The “accumulation of β-catenin” value in the data set on Wnt/β-catenin pathway was “inhibit accumulation of β-catenin”. The “fin regeneration after removal of the chemical” value in data set [3] (zebrafish bred 7 d in water containing compound, then removal) was “able to regenerate tissue to nearly normal levels after chemical removal”. Further, the “caudal fin regeneration after mechanical resection” value in data set [3] is listed as “suppressed fin regeneration”.

These data come from patent US8445491B2, “Wnt protein signalling inhibitors” (The Board of Regents of the University of Texas System, priority 2008, dated 2013).
